Some test systems named below: OVCAR-5 ovarian; TK-10 renal; HCT-116 colon; SR leukemia; UACC-62 melanoma; RPMI-8226 leukemia; SW-620 colon; MOLT-4 leukemia; ACHN renal; SF-295 CNS.
Experiment in all cases: DTP human tumour cell line panel, 48 h

Our source for the TGI and GI50 values is PubChem BioAssay (NCI).

Structures are written as SMILES.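 48-hour exposure; five concentrations; linearly interpolated endpoints. GI50: concentration for 50% inhibition of growth. TGI marks complete inhibition of growth.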

A word on the TGI: it is the concentration giving total growth inhibition. Higher therefore signals less potent growth arrest. On to `COC(=O)C(=O)C(C(=O)C(=O)Nc1ccc(Cl)cc1C)c1nc2ccc(C(=O)c3ccccc3)cc2[nH]c1=O` (stereo not given), for which the total growth inhibition concentration (TGI) in the experiment on OVCAR-5 ovarian, with TK-10 renal, in the experiment with HCT-116 colon, in the experiment on SR leukemia, in the experiment on UACC-62 melanoma and with RPMI-8226 leukemia was over 100 µM throughout. Also, the total growth inhibition concentration (TGI) in the experiment on SW-620 colon, in the experiment on MOLT-4 leukemia, in the experiment on ACHN renal and in the experiment with SF-295 CNS was over 100 µM in each case.
In general, GI50 refers to the concentration that inhibits growth by half. `O=C(Nc1nccs1)c1cc2c(cc1Cl)Sc1nccn1S2(=O)=O`: the GI50 in the experiment with OVCAR-5 ovarian is 21.7 µM; in the experiment with TK-10 renal it was 18.9 µM; in the experiment with HCT-116 colon it was 16.1 µM; in the experiment on SR leukemia, 3 µM; in the experiment with UACC-62 melanoma, 14.3 µM; in the experiment on RPMI-8226 leukemia, 9.29 µM. The GI50 was 16.8 µM in the experiment on SW-620 colon, 19.1 µM in the experiment with MOLT-4 leukemia, 17.7 µM with ACHN renal and 18.3 µM with SF-295 CNS. The TGI turned out to be 46 µM in the experiment with OVCAR-5 ovarian; 34.4 µM in the experiment on TK-10 renal; 29.5 µM in the experiment with HCT-116 colon; 11.9 µM in the experiment with SR leukemia; 27.4 µM with UACC-62 melanoma; 23.6 µM in the experiment with RPMI-8226 leukemia. Also, the total growth inhibition concentration (TGI) in the experiment on SW-620 colon worked out at 42 µM; in the experiment with MOLT-4 leukemia, 42.1 µM; with ACHN renal, 32.2 µM; in the experiment on SF-295 CNS it was 34.5 µM.
Take `COc1cc(/C=C/C(=O)c2ccc(Nc3ncnc4ccccc34)cc2)cc(OC)c1`: the GI50 with OVCAR-5 ovarian was 20.3 µM; with TK-10 renal, 8.4 µM; in the experiment with HCT-116 colon, 0.346 µM; with SR leukemia it was 0.556 µM; in the experiment on UACC-62 melanoma it was 7.7 µM; in the experiment with RPMI-8226 leukemia it was 0.227 µM. Moreover, the GI50 with SW-620 colon was 2.38 µM; in the experiment with MOLT-4 leukemia, 2.4 µM; with ACHN renal, 13.9 µM; with SF-295 CNS, 4.31 µM. The total growth inhibition concentration (TGI) in the experiment with OVCAR-5 ovarian came out at 57.3 µM; in the experiment on TK-10 renal, 24.4 µM; with HCT-116 colon, 1.17 µM; with SR leukemia, 3.17 µM; in the experiment on UACC-62 melanoma it was 27.7 µM; in the experiment on RPMI-8226 leukemia, 0.715 µM. Further, the concentration for total growth inhibition (TGI) came out at 9.68 µM in the experiment on SW-620 colon, 17.1 µM in the experiment on MOLT-4 leukemia, 63.9 µM in the experiment with ACHN renal and 29.2 µM with SF-295 CNS.
On to `COc1cc(/C=C2\[C@H]3c4c(c(OC)c(C)c(OC)c4OC)C[C@@H](C(=O)N2Cc2ccccc2)N3C(=O)OC(C)C)c(OC)c(C)c1OC`, for which the TGI in the experiment on OVCAR-5 ovarian, in the experiment with TK-10 renal, with HCT-116 colon, with SR leukemia, in the experiment on UACC-62 melanoma and with RPMI-8226 leukemia was over 100 µM throughout. Further, the TGI in the experiment on SW-620 colon, with MOLT-4 leukemia, in the experiment with ACHN renal and in the experiment with SF-295 CNS was over 100 µM in each case.
In the case of `C=C[C@]1(C)CCC2=C(CCC3C2(C)CCC[C@]3(C)CO)C1` (stereo not given in full), the TGI in the experiment on OVCAR-5 ovarian, in the experiment with TK-10 renal, in the experiment with HCT-116 colon, with SR leukemia, in the experiment with UACC-62 melanoma and in the experiment on RPMI-8226 leukemia was over 100 µM throughout. Besides, the TGI in the experiment with SW-620 colon is over 100 µM; with MOLT-4 leukemia, 84.9 µM; in the experiment on ACHN renal, over 100 µM; in the experiment with SF-295 CNS, over 100 µM.
For the molecule `COc1ccc(/C(C)=C(\c2ccc(Cl)cc2)c2ccc(OCCN3CCCC3)cc2)cc1F`, the GI50 is 3.15 µM with OVCAR-5 ovarian; 3.58 µM in the experiment with TK-10 renal; 2.05 µM in the experiment on HCT-116 colon; 1.18 µM in the experiment with SR leukemia; 3.1 µM in the experiment on UACC-62 melanoma; 3.57 µM with RPMI-8226 leukemia. The GI50 with SW-620 colon is 2.5 µM; with MOLT-4 leukemia, 3.48 µM; with ACHN renal it was 4.06 µM; in the experiment with SF-295 CNS, 2.92 µM. In addition, the TGI in the experiment with OVCAR-5 ovarian amounted to 6.37 µM; in the experiment on TK-10 renal it was 8.13 µM; in the experiment on HCT-116 colon it was 5.64 µM; with SR leukemia it was 6.47 µM; with UACC-62 melanoma it was 6.32 µM; in the experiment with RPMI-8226 leukemia, 9.23 µM. The TGI in the experiment on SW-620 colon stood at 5.68 µM; in the experiment on MOLT-4 leukemia, 8.28 µM; in the experiment with ACHN renal, 7.44 µM; with SF-295 CNS it was 6.25 µM.
With `COc1cc2nc(Sc3c([N+](=O)[O-])ncn3C)[nH]c2cc1OC`, the TGI with OVCAR-5 ovarian was over 100 µM; with TK-10 renal, 67.3 µM; with HCT-116 colon, over 100 µM; in the experiment with SR leukemia it was 60.2 µM; with UACC-62 melanoma, 75.8 µM; in the experiment on RPMI-8226 leukemia, over 100 µM. For the same molecule, the TGI in the experiment with SW-620 colon was over 100 µM; in the experiment on MOLT-4 leukemia, 44.4 µM; in the experiment on ACHN renal, over 100 µM; in the experiment with SF-295 CNS it was over 100 µM.
